Laboratory results taken from ChEMBL document CHEMBL1201862, “PubChem BioAssay data set” (2004).
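1) Cells in 96-well plates. 2) Compound, 48 h, 5 concentrations. 3) Linear interpolation between surrounding doses. 4) Unreached endpoint = highest concentration. At the GI50, growth is halved.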 Calls of active or inactive are those of the source. Rule as the data show it: active = GI50 up to about 1.1 µM and inactive = higher.

Tests used:
Experiment in all cases: inhibition of tumour cell growth, NCI panel, 48 h
[1] = system: NCI-H226
[2] = system: SNB-75
[3] = system: PC-3
[4] = system: T47D
[5] = system: TK-10
[6] = system: K562
[7] = system: EKVX
[8] = system: KM12
[9] = system: SK-MEL-28
[10] = system: BT-549
[11] = system: 786-0
[12] = system: MOLT-4
[13] = system: UACC-62
[14] = system: SR
[15] = system: HCC 2998
[16] = system: MDA-N
[17] = system: MCF7
[18] = system: LOX IMVI
[19] = system: NCI/ADR-RES
[20] = system: COLO 205
[21] = system: UACC-257
[22] = system: OVCAR-5
[23] = system: OVCAR-3
[24] = system: HCT-116
[25] = system: OVCAR-4
[26] = system: NCI-H460
[27] = system: A549
[28] = system: UO-31
[29] = system: SF-268
[30] = system: M14
[31] = system: SN12C
[32] = system: CAKI-1
[33] = system: MDA-MB-231
[34] = system: SF-295
[35] = system: DU-145
[36] = system: Hs-578T
[37] = system: HL-60
[38] = system: SK-MEL-2
[39] = system: HOP-62
[40] = system: HT-29
[41] = system: U-251
[42] = system: CCRF-CEM
[43] = system: SF-539
[44] = system: SNB-19
[45] = system: RXF 393
[46] = system: NCI-H23
[47] = system: SW-620
[48] = system: MDA-MB-435
[49] = system: ACHN
[50] = system: NCI-H522
[51] = system: IGROV-1
[52] = system: HCT-15
[53] = system: HOP-92
[54] = system: A498
[55] = system: Malme-3M
[56] = system: RPMI-8226
[57] = system: OVCAR-8
[58] = system: SK-OV-3
[59] = system: SK-MEL-5

SMILES: CCc1nc(N)nc(N)c1-c1ccc2nn(-c3ccccc3)[n+]([O-])c2c1
- GI50 [1]: 14.5 µM (inactive)
- GI50 [2]: 21.3 µM (inactive)
- GI50 [3]: 1.23 µM (inactive)
- GI50 [4]: 13.1 µM (inactive)
- GI50 [5]: 15 µM (inactive)
- GI50 [6]: 0.203 µM (active)
- GI50 [7]: 7.96 µM (inactive)
- GI50 [8]: 5.45 µM (inactive)
- GI50 [9]: 11.8 µM (inactive)
- GI50 [10]: 11.9 µM (inactive)
- GI50 [11]: 1.16 µM (inactive)
- GI50 [12]: 2.84 µM (inactive)
- GI50 [13]: 1.02 µM (active)
- GI50 [14]: 1.35 µM (inactive)
- GI50 [15]: 4.59 µM (inactive)
- GI50 [16]: 0.895 µM (active)
- GI50 [17]: 4.17 µM (inactive)
- GI50 [18]: 1.01 µM (active)
- GI50 [19]: 3.13 µM (inactive)
- GI50 [20]: 8.22 µM (inactive)
- GI50 [21]: 10.6 µM (inactive)
- GI50 [22]: 14 µM (inactive)
- GI50 [23]: 7.62 µM (inactive)
- GI50 [24]: 0.396 µM (active)
- GI50 [25]: 11.9 µM (inactive)
- GI50 [26]: 0.361 µM (active)
- GI50 [27]: 0.378 µM (active)
- GI50 [28]: 7.13 µM (inactive)
- GI50 [29]: 5.12 µM (inactive)
- GI50 [30]: 1.33 µM (inactive)
- GI50 [31]: 9.38 µM (inactive)
- GI50 [32]: 4.47 µM (inactive)
- GI50 [33]: 11.7 µM (inactive)
- GI50 [34]: 2.4 µM (inactive)
- GI50 [35]: 6.14 µM (inactive)
- GI50 [36]: 17.9 µM (inactive)
- GI50 [37]: 0.902 µM (active)
- GI50 [38]: 14.3 µM (inactive)
- GI50 [39]: 5.82 µM (inactive)
- GI50 [40]: 1.26 µM (inactive)
- GI50 [41]: 2.58 µM (inactive)
- GI50 [42]: 1.6 µM (inactive)
- GI50 [43]: 3.7 µM (inactive)
- GI50 [44]: 16.3 µM (inactive)
- GI50 [45]: 10.3 µM (inactive)
- GI50 [46]: 1.87 µM (inactive)
- GI50 [47]: 0.869 µM (active)
- GI50 [48]: 1.27 µM (inactive)
- GI50 [49]: 1.76 µM (inactive)
- GI50 [50]: 2.83 µM (inactive)
- GI50 [51]: 1.67 µM (inactive)
- GI50 [52]: 0.697 µM
- GI50 [53]: 8.91 µM (inactive)
- GI50 [54]: 8.43 µM (inactive)
- GI50 [55]: 10.7 µM (inactive)
- GI50 [56]: 8.24 µM (inactive)
- GI50 [57]: 2.42 µM (inactive)
- GI50 [58]: 39.1 µM (inactive)
- GI50 [59]: 2.61 µM (inactive)

SMILES: N=C(N)SCc1ccc(Cl)c2ccccc12.O=[N+]([O-])c1ccc(O)c([N+](=O)[O-])c1
- GI50 [1]: 12.4 µM (inactive)
- GI50 [2]: 4.56 µM (inactive)
- GI50 [3]: 12.6 µM (inactive)
- GI50 [4]: 5.35 µM (inactive)
- GI50 [5]: 6.84 µM (inactive)
- GI50 [6]: 0.421 µM (active)
- GI50 [7]: 10.3 µM (inactive)
- GI50 [8]: 12.3 µM (inactive)
- GI50 [9]: 12.6 µM (inactive)
- GI50 [10]: 15.6 µM (inactive)
- GI50 [11]: 12.4 µM (inactive)
- GI50 [12]: 1.4 µM (inactive)
- GI50 [13]: 12.5 µM (inactive)
- GI50 [14]: 1.04 µM (active)
- GI50 [15]: 2.04 µM (inactive)
- GI50 [16]: 11.1 µM (inactive)
- GI50 [17]: 10 µM (inactive)
- GI50 [18]: 14.9 µM (inactive)
- GI50 [19]: 16.7 µM (inactive)
- GI50 [20]: 6.81 µM (inactive)
- GI50 [21]: 4.19 µM (inactive)
- GI50 [22]: 13.5 µM (inactive)
- GI50 [23]: 8.95 µM (inactive)
- GI50 [24]: 13.4 µM (inactive)
- GI50 [25]: 10.9 µM (inactive)
- GI50 [26]: 7.55 µM (inactive)
- GI50 [27]: 16.9 µM (inactive)
- GI50 [28]: 12.3 µM (inactive)
- GI50 [29]: 15.4 µM (inactive)
- GI50 [30]: 13 µM (inactive)
- GI50 [31]: 11 µM (inactive)
- GI50 [32]: 11.7 µM (inactive)
- GI50 [33]: 12.7 µM (inactive)
- GI50 [34]: 9.91 µM (inactive)
- GI50 [35]: 12.9 µM (inactive)
- GI50 [36]: 20.7 µM (inactive)
- GI50 [37]: 2.82 µM (inactive)
- GI50 [38]: 11.6 µM (inactive)
- GI50 [39]: 14.1 µM (inactive)
- GI50 [40]: 11.4 µM (inactive)
- GI50 [41]: 11.4 µM (inactive)
- GI50 [42]: 3.23 µM (inactive)
- GI50 [43]: 5.2 µM (inactive)
- GI50 [44]: 16.2 µM (inactive)
- GI50 [45]: 8.02 µM (inactive)
- GI50 [46]: 12.6 µM (inactive)
- GI50 [47]: 11.7 µM (inactive)
- GI50 [48]: 8.24 µM (inactive)
- GI50 [49]: 12.9 µM (inactive)
- GI50 [50]: 7.78 µM (inactive)
- GI50 [51]: 14.2 µM (inactive)
- GI50 [52]: 14.5 µM
- GI50 [53]: 6.67 µM (inactive)
- GI50 [54]: 9.4 µM (inactive)
- GI50 [55]: 10 µM (inactive)
- GI50 [56]: 1.32 µM (inactive)
- GI50 [57]: 22.1 µM (inactive)
- GI50 [58]: 15.3 µM (inactive)
- GI50 [59]: 8.61 µM (inactive)

SMILES: O=C(c1c2c(cc3c1CC1(Cc4cc5c(cc4C1)CCCC5)C3)CCCC2)C(Br)Br
- GI50 [1]: 6.38 µM (inactive)
- GI50 [2]: 5.08 µM (inactive)
- GI50 [3]: 12.5 µM (inactive)
- GI50 [4]: 6.38 µM (inactive)
- GI50 [5]: 17 µM (inactive)
- GI50 [6]: 4.31 µM (inactive)
- GI50 [7]: 34.7 µM (inactive)
- GI50 [8]: 22.1 µM (inactive)
- GI50 [9]: 16.5 µM (inactive)
- GI50 [10]: 5.48 µM (inactive)
- GI50 [11]: 14.6 µM (inactive)
- GI50 [12]: 1.85 µM (inactive)
- GI50 [13]: 14.9 µM (inactive)
- GI50 [14]: 2.69 µM (inactive)
- GI50 [15]: 21.5 µM (inactive)
- GI50 [16]: 14.8 µM (inactive)
- GI50 [17]: 7.67 µM (inactive)
- GI50 [18]: 1.79 µM (inactive)
- GI50 [19]: 19.4 µM (inactive)
- GI50 [20]: 13.2 µM (inactive)
- GI50 [21]: 19.9 µM (inactive)
- GI50 [22]: 22.9 µM (inactive)
- GI50 [23]: 18.7 µM (inactive)
- GI50 [24]: 14.9 µM (inactive)
- GI50 [25]: 12.4 µM (inactive)
- GI50 [26]: 40.2 µM (inactive)
- GI50 [27]: 43.8 µM (inactive)
- GI50 [28]: 13.8 µM (inactive)
- GI50 [29]: 14.6 µM (inactive)
- GI50 [30]: 4.18 µM (inactive)
- GI50 [31]: 18.6 µM (inactive)
- GI50 [32]: 11.3 µM (inactive)
- GI50 [33]: 17.4 µM (inactive)
- GI50 [34]: 58.6 µM (inactive)
- GI50 [35]: > 58.5 µM (inactive)
- GI50 [36]: 30.8 µM (inactive)
- GI50 [37]: 3.18 µM (inactive)
- GI50 [38]: 19.2 µM (inactive)
- GI50 [39]: > 51.2 µM (inactive)
- GI50 [40]: 20.3 µM (inactive)
- GI50 [41]: 16.2 µM (inactive)
- GI50 [42]: 1.6 µM (inactive)
- GI50 [43]: 20.2 µM (inactive)
- GI50 [44]: > 40.9 µM (inactive)
- GI50 [45]: 6.73 µM (inactive)
- GI50 [46]: 14.6 µM (inactive)
- GI50 [47]: 5.48 µM (inactive)
- GI50 [48]: 14 µM (inactive)
- GI50 [49]: 13.4 µM (inactive)
- GI50 [50]: 1.65 µM (inactive)
- GI50 [51]: 9.02 µM (inactive)
- GI50 [52]: 16.1 µM
- GI50 [53]: 13.4 µM (inactive)
- GI50 [54]: 29.7 µM (inactive)
- GI50 [55]: 3.53 µM (inactive)
- GI50 [56]: 5.04 µM (inactive)
- GI50 [57]: 15 µM (inactive)
- GI50 [58]: 21.4 µM (inactive)
- GI50 [59]: 5.24 µM (inactive)
